What was measured:
Bacillus cereus spores = format: cell-based
[1] = Solubility of DPA in water; format: physicochemical
[2] = system: Bacillus anthracis endospores

CCCCCCCCCCCCN [DDA, dodecylamine, reference compound]
Exposure required before a reasonable DPA SERS signal was observed (Bacillus cereus spores): 1 h

O=C(O)c1cccc(C(=O)O)n1 [DPA, dipicolinic acid]
Solubility in water [1]: only slightly soluble

O=CO [formic acid]
SERS of DPA (CaDPA release at room temperature) (Bacillus cereus spores): observed

CC(=O)O [glacial acetic acid, acetic acid]
DPA concentration calculated from 1008 cm-1 peak ([2]; Example 1, hypothetical 1000 spores, 50 microL, 1 minute): 20±10 ng per 1 mL
Time in which most, if not all, of the CaDPA is released ([2]; acid dispensed onto surface): 1 to 5 min

CC(O)C(=O)O (stereo not shown) [lactic acid]
SERS of DPA (CaDPA release at room temperature) (Bacillus cereus spores): observed

O=C(O)C(F)(F)F [trifluoroacetic acid]
SERS of DPA (CaDPA release at room temperature) (Bacillus cereus spores): observed
